Source: patent US7507727B2, “Substituted quinobenzoxazine analogs and methods of using thereof” (Cylene Pharmaceuticals, Inc., priority 2003, dated 2009)
Entries after “also recorded” stand apart in the source; their conditions may differ.

How the values were obtained:
MiaPaCa xenograft = experiment: MiaPaCa pancreatic cancer xenograft model; assay type: in vivo, mice; details: 5, 10 and 15 mg/kg i.p. q.o.d., FIG. 10
Experimental: CX-3543 was tested against a number of cancer xenograft models to determine the in vivo efficacy. HCT-116 and PC-3 tumor-bearing nu/nu or MiaPaCa tumor-bearing SCID mice were administered reference and testing compounds on schedules indicated in figure legends. Tumor measurements were taken with calipers every other day or twice a week starting from the first day of dosing and body weights were measured at the same time points. Tumor volumes were calculated from the standard formula, W^2×L/2. c-MYC mRNA expression was measured with QPCR from all tumor samples following the final dose. 18S ribosomal RNA was used as a housekeeper and also quantified with QPCR.

[1] = target: c-Myc template DNA (c-myc quadruplex); experiment: Quadruplex binding / stop assay (Taq polymerase arrest, capillary electrophoresis); details: read-out: IC50 value in the stop assay; arrest product/full-length product ratio 1:1; FIG. 2
Source text: A high throughput polymerase arrest assay has been developed. The assay comprises contacting a template nucleic acid, often DNA, with a primer, which also is often DNA; contacting the primer/template complex with a compound described herein (also referred to as a “test compound”); contacting the primer/template complex with a polymerase; and separating reaction products. The assay often includes the step of denaturing the primer/template complex mixture and then renaturing the complex, which often is carried out before a test molecule is added to the system. Multiple assays often are carried out using varying concentrations of a test compound, such that an IC50 value can be obtained, for example. The reaction products often include extended primers of different lengths.
Thus, the reaction mixture often includes at least two reaction products when a test compound interacts with a quadruplex structure in the template, one having a completely extended primer and one having an incompletely extended primer, and these two reaction products are separated. The products may be separated using any convenient separation method, such as mass spectrometry and in one embodiment, capillary electrophoresis.
In an embodiment, a primer oligonucleotide covalently linked to a fluorescent label is contacted with template DNA. The resulting complex is contacted with a test molecule and then contacted with a polymerase capable of extending the primer. The reaction products then are separated and detected by capillary electrophoresis. A longer primer sequence was used for practicing this embodiment as compared to embodiments where the primer includes no covalently-linked fluorophore or where capillary electrophoresis is not utilized for separation. Deoxynucleotides are added at any stage of the assay before the separation, often when the primer is contacted with the template DNA. The template DNA/primer complex often is denatured (e.g., by increasing the temperature of the system) and then renatured (e.g., by cooling the system) before a test compound is added).
The mixture was denatured at 95° C. for 5 minutes and, after cooling down to room temperature, was incubated at 37° C. for 15 minutes.
After cooling down to room temperature, 1 mM KCl and the test compound (various concentrations) were added and the mixture incubated for 15 minutes at room temperature. The primer extension was performed by adding 10 mM KCl and Taq DNA Polymerase (2.5 U/reaction, Promega) and incubating at 70° C. for 30 minutes. The reaction was stopped by adding 1 μl of the reaction mixture to 10 μl Hi-Di Formamide mixed and 0.25 μl LIZ120 size standard. Hi-Di Formamide and LIZ120 size standard were purchased from Applied Biosystems.
The partially extended quadruplex arrest product was between 61 or 62 bases long and the full-length extended product was 99 bases long. The products were separated and analyzed using capillary electrophoresis. Capillary electrophoresis was performed using an ABI PRISM 3100-Avant Genetic Analyzer.
Stop Assays. […] A fluorescently labeled primer DNA is then annealed to the 3′ end of the template DNA. A DNA polymerase such as Taq polymerase is then introduced to synthesize a complementary strand of DNA by extending from the fluorescently labeled primer. When the progress of the Taq polymerase is unhindered, it synthesizes a full-length copy of the template.
These products are visualized by capillary electrophoresis.

p53 (total) = p53 (total) ELISA in HCT-116 cells; assay type: cell-based; details: 24 hr, 1-5 uM
Experimental: The protocol for this assay is described as follows. On Day 1, cells were seeded at 2×10^6 cells/10 cm dish/10 mL medium. On day two, cells were treated as follows: control=0.05% DMSO (5 μl DMSO stock/10 ml medium); 1 μM CX3543 (1 μl Stock (10 mM)/10 ml medium); 2 μM CX3543 (2 μl Stock (10 mM)/10 ml medium); 3 μM CX3543 (3 μl Stock (10 mM)/10 ml medium); 4 μM CX3543 (4 μl Stock (10 mM)/10 ml medium) and 5 μM CX3543 (5 μl Stock (10 mM)/10 ml medium).
On Day 3, cells were harvested and attached and floating cells were collected. Cells were washed twice with PBS, counted and collected at 4×10^6 cells/sample. The cell pellet was frozen at −80° C. until further use. […]
Test Procedure. […] After washing, the plate is inverted and tapped dry on absorbance tissue. […]
Wash wells with 400 μl working wash buffer four times. […] After washing, the plate is inverted and tapped try on absorbance tissue. […] After washing, the plate is inverted and tapped try on absorbance tissue. […] Read the plate at A450 nm by setting chromogen blank (=100 μl TMB+100 μl Stop soln) as blank. Read absorbance within 2 hours of assay completion.

HCT-116 cells = experiment: Annexin V-Alexa 488 staining; assay type: cell-based; details: 2 uM and 4 uM, 24 hr
Experimental: The following protocol was followed for this example. […] Incubate o/n or up to 24 hrs at 37° C. in CO2 incubator. […] Keep one or two untreated plates (medium only) as control plates. […] Harvest cells (collect attached as well as floating cells). Wash cells twice with cold PBS. Re-suspend cells in 1× Annexin binding buffer.
Count cells and dilute in 1× Annexin binding buffer to ˜1×10^6 cells/0.1 ml, preparing a sufficient volume to have 100 μl per assay. Add 5 μl of the Annexin V conjugate to each 100 μl of cell suspension. Add 4 μl of propidium iodide solution (stock=1 mg/ml) to each 100 μl of cell suspension. Incubate sample at RT for 15 minutes. Add 400 μl Annexin binding buffer, mix gently and keep samples on ice. Analyze stained cells immediately by flow cytometry.

CN1CCCC1CCNC(=O)c1cn2c3c(c(N4CCC(c5cnccn5)C4)c(F)cc3c1=O)Oc1cc3ccccc3cc1-2 (stereo not shown) [CX-3543]
tumor growth inhibition (MiaPaCa xenograft): inhibits tumor growth; also recorded: significant tumor growth inhibition | IC50 [1]: 1000 nM | population of the protein p53 (total) (p53 (total)): enhanced | staining by a dye positive for Annexin V externalization (HCT-116 cells): significant increased staining
